We go through two compounds from PubChem BioAssay AID1918953 (Molecular Pharmacology Branch, DTP, NCI, 2023).

The assay relates to MDA-MB-231 complex spheroid viability. The assay can be described thus: Anticancer human tumor MDA-MB-231/ATCC cell line growth inhibition.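 For all read-outs here: drug exposure lasted 7 days starting on day 3 of spheroid growth.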 The settings on record: for viability, T/C: stronger effect = lower value. From the text: Multicellular complex tumor spheroid response to LSD1 Inhibitor Iadademstat in combination with a variety of drugs and investigational agents in selected tumor cell lines
The current study was undertaken to assess response to LSD1 inhibitors in combination with standard-of-care drugs and investigational agents in solid tumor complex spheroid models as well as in the K-562 leukemia. Complex spheroids include a stromal component modeled by human endothelial cells (HUVEC) and fibroblasts modeled by human mesenchymal stem cells (MSCs). The concentration ranges selected for each drug and investigational agent were based upon clinically achievable concentrations if the clinical Cmax of the agent was known.
Compounds. The drugs and investigational agents used in this study are listed on Table 1. All of the agents used, including staurosporine (NSC755774) and gemcitabine (NSC613327), were obtained from the Developmental Therapeutics Program, NCI. FDA-approved anticancer drugs are available from the NCI at http://dtp.nci.nih.gov/branches/dscb/oncology_drugset_explanation.html. Drugs and investigational agents were >95% pure by proton nuclear magnetic resonance (NMR) and liquid chromatography/mass spectrometry (LC/MS). Stock solutions were prepared at 400x in DMSO, stored at -70 degrees C, and diluted in fresh medium prior to their use. The final concentration of DMSO in cell culture wells never exceeded 0.25% (v/v). The FDA-approved anticancer drug set is available from the Developmental Therapeutics Program at https://dtp.cancer.gov/organization/dscb/obtaining/available_plates.htm. All drugs and investigational agents were tested over a range starting from a high concentration at or near the clinical Cmax and decreasing in half-log increments. If the clinical Cmax for an agent had not been determined, the highest concentration tested was 10 microM.
Cell Lines. The patient-derived cancer cell (PDC) lines: 292921-168-R-J2-PDC, K24384-001-R-PDC, and 521955-158-R2-J5-PDC pancreatic carcinomas, 556581-035-R-J1 ovarian carcinoma, 324938-238-R-J1-PDC, 855422-203-R-J1-PDC and 883617-216-R-J1-PDC urothelial bladder carcinomas, 743489-274-T-PDC renal cell carcinoma, 138582-R-J1 Merkel cell tumor, K60290-347-R-J1 and K57222-313-R-J1-PDC glioblastomas, 653999-131-R-J2-PDC, LG0703-F948-PDC, and 349418-098-R-PDC non-small cell lung carcinomas, 885512-296-R-J2-PDC, 171881-019-R-J1-PDC breast carcinomas and 186277-243-T-J2-PDC and 233499-124-R-J2-PDC colon carcinomas were obtained from the NCI Patient-Derived Models Repository (PDMR, https://pdmr.cancer.gov). The established cell lines NCI/ADR-RES (RRID:CVCL_14520 and OVCAR-5 (RRID:CVCL_1628) ovarian carcinomas, 786-O (RRID:CVCL_1051) and A498 (RRID:CVCL_A498) renal cell carcinoma, NCI-H211 (ATCC, cat. CRL-5824; RRID:CVCL_1529), NCI-H196 (ATCC, cat. CRL-5823, RRID:CVCL_1509), SW 1271 (ATCC, cat. CRL-2177, RRID:CVCL_1716) and NCI-H1876 (ATCC, cat. CRL-5902, RRID:CVCL_1503) small cell lung carcinomas, MDA-MB-231 (RRID:CVCL_0062) and MDA-MB-468 (RRID:CVCL_0419)breast carcinomas (10-12). Pooled donor human umbilical vein endothelial cells (HUVEC, Lonza, cat. CC-2519) and human mesenchymal stem cells (hMSC, Lonza, cat. PT-2501) were purchased from Lonza (Walkersville, MD).
Cell Culture. All cells were maintained in an incubator at 37 degrees C and 5% CO2 with 95% humidity. The PDC lines were cultured according to standard operating procedures established by the NCI PDMR (https://pdmr.cancer.gov). Briefly all PDCs were thawed and cultured in Matrigel-coated flasks prepared with a working solution of 1X Ham's F-12 nutrient mix, without supplementation (Invitrogen, Waltham, MA, cat. 11765054), 100 U/mL penicillin-streptomycin (Invitrogen, cat. 15140122), and 2.5% Matrigel (Corning Inc., Corning, NY, cat. 354248) for the first three passages. […]

Values joined by “and” are separate entries in the source; they are usually repeats but may differ in a detail not shown here. Equal values may be shown once.

Take `COc1ccc([C@@H](O)c2cc(-c3ncnc4cc(N5CCOCC5)ccc34)c(F)cc2Cl)nn1` + NC1CC1c1ccc(-c2cccc(O)c2)cc1: the IC50 (commonly the concentration that inhibits the measured activity by half) is, setting by setting: (curve of first compound, second compound 0.1 µM) 361 nM; (curve of first compound, second compound 0.316 µM) 173 nM; (curve of first compound, second compound 1 µM) 82.5 nM; (curve of first compound, second compound 3.16 µM) 164 nM; (curve of first compound, second compound 10 µM) < 31.6 nM. The viability, T/C (commonly the ratio of treated to control) is, setting by setting: (second compound 0.1 µM, first compound 0.0316 µM) 74.9%; (second compound 0.1 µM, first compound 0.1 µM) 65.6%; (second compound 0.1 µM, first compound 0.316 µM) 53%; (second compound 0.1 µM, first compound 1 µM) 33.1%; (second compound 0.1 µM, first compound 3.16 µM) 17.1%; (second compound 0.1 µM, first compound 10 µM) 12.8%. Also, the viability, T/C (second compound 0.316 µM, first compound 0.0316 µM) is 57.1%; the viability, T/C (second compound 0.316 µM, first compound 0.1 µM) is 58.5%; the viability, T/C (second compound 0.316 µM, first compound 0.316 µM) was 42.3%; the viability, T/C (second compound 0.316 µM, first compound 1 µM) was 28.9%; the viability, T/C (second compound 0.316 µM, first compound 3.16 µM) is 18%; the viability, T/C (second compound 0.316 µM, first compound 10 µM) was 13.1%. Moreover, the viability, T/C by setting is: (second compound 1 µM, first compound 0.0316 µM) 59.3%; (second compound 1 µM, first compound 0.1 µM) 48.3%; (second compound 1 µM, first compound 0.316 µM) 36%; (second compound 1 µM, first compound 1 µM) 27.4%; (second compound 1 µM, first compound 3.16 µM) 16.2%; (second compound 1 µM, first compound 10 µM) 11%. Besides, the viability, T/C reads like this: (second compound 3.16 µM, first compound 0.0316 µM) 58.5%; (second compound 3.16 µM, first compound 0.1 µM) 54.2%; (second compound 3.16 µM, first compound 0.316 µM) 43.7%; (second compound 3.16 µM, first compound 1 µM) 29.1%; (second compound 3.16 µM, first compound 3.16 µM) 14.8%; (second compound 3.16 µM, first compound 10 µM) 11.6%. Further, the viability, T/C was 44.8% (second compound 10 µM, first compound 0.0316 µM); 43.7% (second compound 10 µM, first compound 0.1 µM); 31.6% (second compound 10 µM, first compound 0.316 µM); 20.2% (second compound 10 µM, first compound 1 µM); 13.5% (second compound 10 µM, first compound 3.16 µM); 10.2% (second compound 10 µM, first compound 10 µM).
In the case of `CC(C)CC(NC(=O)CNC(=O)c1cc(Cl)ccc1Cl)B1OC(=O)CC(CC(=O)O)(C(=O)O)O1` (configuration not stated), the viability, T/C is, setting by setting: (compound 0.000316 µM) 99% and 100%; (compound 0.001 µM) 104% and 105%; (compound 0.00316 µM) 85.2% and 70.2%; (compound 0.01 µM) 39.5% and 14.9%; (compound 0.0316 µM) 6.41% and 1.24%; (compound 0.1 µM) 0.95% and 0.27%. Besides, the IC50 (curve of compound) was 7.67 nM and 4.84 nM.
